Laboratory results taken from US9296725B2, “Heterocyclyl pyrimidine analogues as TYK2 inhibitors” (Cellzome Limited, priority 2012, dated 2016).

How the values were obtained:
[1] = target: T1, JAK2 (Homo sapiens, UniProt O60674); assay: Kinobeads assay, JAK2 (competition binding in mixed Molt4/Ramos cell lysate, dot blot detection); conditions: read-out: JAK2 Band (Kinobeads assay potency, IC50)
T1 construct: endogenous in cells; host or cells: Molt4 (ATCC CRL-1582) and Ramos (ATCC CRL-1596), mixed lysate 1:2
Outline: (§1)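 Competition binding: compound dilutions (1:3 series, 9 steps) plus immobilized aminopyrido-pyrimidine beads incubated 3 h in the cold with mixed Molt4/Ramos lysate (1:2) at 10 mg/mL protein. Bead-bound JAK2/TYK2 eluted and quantified by antibody dot blot with infrared detection; IC50 from dose-response curves.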

[2] = target: T2, TYK2 (Homo sapiens, UniProt P29597); assay: Kinobeads assay, TYK2 (competition binding in mixed Molt4/Ramos cell lysate, dot blot detection); conditions: Kinobeads assay, Molt4/Ramos lysate; read-out: TYK2 Band (Kinobeads assay potency, IC50)
T2 construct: endogenous in cells; host or cells: Molt4 (ATCC CRL-1582) and Ramos (ATCC CRL-1596), mixed lysate 1:2
Outline: as §1

T2 sequence (P29597 whole entry): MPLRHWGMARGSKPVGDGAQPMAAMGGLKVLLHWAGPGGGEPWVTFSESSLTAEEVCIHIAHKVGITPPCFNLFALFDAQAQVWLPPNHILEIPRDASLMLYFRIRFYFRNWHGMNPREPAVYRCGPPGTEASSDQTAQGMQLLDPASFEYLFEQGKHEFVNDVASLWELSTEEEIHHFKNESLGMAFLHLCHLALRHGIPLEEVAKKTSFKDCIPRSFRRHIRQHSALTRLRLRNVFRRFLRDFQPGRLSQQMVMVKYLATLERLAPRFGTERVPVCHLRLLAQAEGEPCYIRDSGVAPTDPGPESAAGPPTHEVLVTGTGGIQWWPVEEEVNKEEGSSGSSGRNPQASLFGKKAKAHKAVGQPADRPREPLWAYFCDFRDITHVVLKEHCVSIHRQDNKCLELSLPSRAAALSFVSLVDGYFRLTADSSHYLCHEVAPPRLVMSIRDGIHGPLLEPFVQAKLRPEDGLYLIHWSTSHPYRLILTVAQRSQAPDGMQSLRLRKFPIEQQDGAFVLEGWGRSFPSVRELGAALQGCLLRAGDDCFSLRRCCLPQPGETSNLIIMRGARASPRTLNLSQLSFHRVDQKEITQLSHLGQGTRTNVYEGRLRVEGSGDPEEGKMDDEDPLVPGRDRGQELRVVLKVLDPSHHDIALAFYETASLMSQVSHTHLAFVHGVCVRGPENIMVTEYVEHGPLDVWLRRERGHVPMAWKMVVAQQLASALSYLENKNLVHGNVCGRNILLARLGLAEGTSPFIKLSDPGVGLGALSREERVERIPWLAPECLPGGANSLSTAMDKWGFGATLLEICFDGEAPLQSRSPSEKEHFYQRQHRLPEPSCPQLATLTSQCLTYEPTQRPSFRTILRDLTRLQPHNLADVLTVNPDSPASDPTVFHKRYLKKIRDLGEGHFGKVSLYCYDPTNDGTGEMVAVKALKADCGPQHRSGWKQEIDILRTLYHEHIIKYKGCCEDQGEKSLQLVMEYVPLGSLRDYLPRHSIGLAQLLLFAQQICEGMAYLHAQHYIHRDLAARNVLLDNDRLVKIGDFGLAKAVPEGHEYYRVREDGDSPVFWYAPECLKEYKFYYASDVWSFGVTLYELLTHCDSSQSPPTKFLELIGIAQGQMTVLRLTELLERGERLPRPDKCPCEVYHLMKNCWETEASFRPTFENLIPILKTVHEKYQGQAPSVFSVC
T1 sequence (O60674 whole entry): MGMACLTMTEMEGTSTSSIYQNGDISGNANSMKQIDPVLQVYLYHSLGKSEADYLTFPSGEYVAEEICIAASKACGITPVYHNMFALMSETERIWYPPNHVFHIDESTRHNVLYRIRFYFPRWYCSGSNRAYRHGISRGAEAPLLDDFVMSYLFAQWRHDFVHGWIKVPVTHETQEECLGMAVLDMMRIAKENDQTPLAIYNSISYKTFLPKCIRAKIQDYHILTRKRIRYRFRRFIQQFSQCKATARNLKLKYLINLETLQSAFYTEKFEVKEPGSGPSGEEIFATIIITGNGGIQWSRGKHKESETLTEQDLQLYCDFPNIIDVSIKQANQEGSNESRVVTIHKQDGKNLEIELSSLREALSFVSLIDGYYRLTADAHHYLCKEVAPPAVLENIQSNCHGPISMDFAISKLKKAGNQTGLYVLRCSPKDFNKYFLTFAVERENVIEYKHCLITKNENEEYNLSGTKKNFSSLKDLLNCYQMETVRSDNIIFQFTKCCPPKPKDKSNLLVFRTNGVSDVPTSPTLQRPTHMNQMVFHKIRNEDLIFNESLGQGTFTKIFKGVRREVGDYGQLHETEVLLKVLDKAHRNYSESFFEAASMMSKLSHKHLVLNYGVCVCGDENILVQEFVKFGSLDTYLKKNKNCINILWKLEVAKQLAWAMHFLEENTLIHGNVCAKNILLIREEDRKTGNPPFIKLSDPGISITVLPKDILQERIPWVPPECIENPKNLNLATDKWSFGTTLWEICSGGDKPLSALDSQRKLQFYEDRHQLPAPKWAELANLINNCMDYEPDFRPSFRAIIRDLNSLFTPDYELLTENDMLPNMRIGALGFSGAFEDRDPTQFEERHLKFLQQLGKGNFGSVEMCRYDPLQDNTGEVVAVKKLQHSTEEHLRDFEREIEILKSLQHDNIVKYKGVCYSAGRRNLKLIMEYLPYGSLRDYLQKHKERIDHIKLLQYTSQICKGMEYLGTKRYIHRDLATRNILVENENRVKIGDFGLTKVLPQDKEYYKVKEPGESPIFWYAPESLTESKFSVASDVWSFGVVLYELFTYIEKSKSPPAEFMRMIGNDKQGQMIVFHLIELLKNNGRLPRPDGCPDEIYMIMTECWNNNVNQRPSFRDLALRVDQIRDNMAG

Structure (SMILES) | IC50 [1] [µM] | IC50 [2] [µM]
COc1c(F)cc(F)cc1CNc1nc(Nc2cnn(CC(F)(F)F)c2)ncc1C [Example I-352] | 1 to 10 | 1 to 10
CC(C)NC(=O)Cn1cc(Nc2nccc(NCc3c(Cl)ccc(F)c3Cl)n2)cn1 [Example I-119] | > 10 | 0.01 to 0.1
NS(=O)(=O)c1ccc(CNc2nc(Nc3cnn(CC(=O)NC4CC4)c3)ncc2Cl)cc1 [Example I-10] | > 10 | 0.01 to 0.1
CCOc1cccc(CNc2nc(Nc3cnn(CCO)c3)ncc2Cl)c1 [Example I-294] | 1 to 10 | 0.1 to 1
Cn1cc(Nc2ncc(Cl)c(NCc3cccc(Br)c3)n2)cn1 [Example I-163] | 1 to 10 | 0.1 to 1
OCCn1cc(Nc2ncc(Cl)c(NCc3cccc(F)c3C(F)(F)F)n2)cn1 [Example I-333] | 1 to 10 | 0.1 to 1
O=C(Cn1cc(Nc2nccc(NCc3c(F)cc(F)cc3F)n2)cn1)NCC1COCCO1 (stereo not shown) [Example I-432] | 1 to 10 | 0.01 to 0.1
COc1ccc(F)c(CNc2nc(Nc3cnn(C)c3)ncc2F)c1F [Example I-383] | 1 to 10 | 0.01 to 0.1
COc1ccc(F)c(CNc2nc(Nc3cnn(CC(=O)O)c3)ncc2Cl)c1F [Example I-295] | 1 to 10 | 0.01 to 0.1
NC(=O)Cn1cc(Nc2ncc(Cl)c(NCc3c(F)cccc3F)n2)cn1 [Example I-240] | 1 to 10 | 0.01 to 0.1
CCOC(=O)Cn1cc(Nc2ncc(F)c(NCc3c(F)cc(F)cc3F)n2)cn1 [Example I-54, Ethyl 2-(4-((5-fluoro-4-((2,4,6-trifluorobenzyl)amino)pyrimidin-2-yl)amino)-1H-pyrazol-1-yl)acetate] | 1 to 10 | 0.01 to 0.1
Cc1cnc(Nc2cnn(CC(=O)N(C)C)c2)nc1NCc1ccccc1 [Example I-300] | 1 to 10 | 0.1 to 1
O=C(Cn1cc(Nc2ncc(Cl)c(NCc3ccccc3)n2)cn1)N1CCOCC1 [Example I-160] | 1 to 10 | 0.01 to 0.1
O=C(Cn1cc(Nc2ncc(Cl)c(NCc3cc(F)cc(F)c3)n2)cn1)N1CCOCC1 [Example I-162] | 0.01 to 0.1 | 0.01 to 0.1
Cc1cnc(Nc2cnn(CC(=O)O)c2)nc1NCc1c(F)cc(F)cc1F [Example I-306] | 1 to 10 | 0.01 to 0.1
Cc1cnc(Nc2cnn(CC(F)(F)F)c2)nc1NCc1cc(F)ccc1F [Example I-353] | 1 to 10 | 0.1 to 1
OCCn1cc(Nc2ncc(Cl)c(NCc3ncccc3F)n2)cn1 [Example I-259] | 1 to 10 | 0.01 to 0.1
Cn1cc(Cn2cc(Nc3ncc(Cl)c(NCc4c(F)cccc4F)n3)cn2)cn1 [Example I-482] | 1 to 10 | 0.1 to 1
CC(O)Cn1cc(Nc2ncc(Cl)c(NCc3ccccc3F)n2)cn1 (stereo not shown) [Example I-213] | 0.1 to 1 | 0.1 to 1

Structure (SMILES) | IC50 [1] [µM] | IC50 [2] [µM]
O=C(O)Cn1cc(Nc2ncc(Cl)c(NCc3c(F)cccc3F)n2)cn1 [Example I-165] | 1 to 10 | 0.01 to 0.1
COc1cccc(CNc2nc(Nc3cnn(CCO)c3)ncc2Cl)c1 [Example I-186] | 1 to 10 | 0.1 to 1
OCCn1cc(Nc2ncc(F)c(NCc3cccc(F)c3F)n2)cn1 [Example I-170] | 1 to 10 | 0.1 to 1
CNC(=O)Cn1cc(Nc2ncc(Cl)c(NCc3cccc(OCC#N)c3)n2)cn1 [Example I-364] | 1 to 10 | 0.1 to 1
CC(C)CNC(=O)Cn1cc(Nc2ncc(Cl)c(NCc3cccc(OC(F)F)c3)n2)cn1 [Example I-392] | 1 to 10 | 0.01 to 0.1
N#CC1CN(C(=O)Cn2cc(Nc3ncc(Cl)c(NCc4ccccc4)n3)cn2)C1 [Example I-274] | 1 to 10 | 0.01 to 0.1
NC(=O)Cn1cc(Nc2ncc(Cl)c(NCc3ccccc3CO)n2)cn1 [Example I-288] | 1 to 10 | 0.1 to 1
CC(C)NC(=O)Cn1cc(Nc2ncc(F)c(NCc3cccc(OC(F)F)c3)n2)cn1 [Example I-45] | > 10 | 0.01 to 0.1
CCNC(=O)c1cccc(CNc2nc(Nc3cnn(CCO)c3)ncc2Cl)c1 [Example I-241] | 1 to 10 | 0.1 to 1
CC(C)NC(=O)Cn1cc(Nc2nccc(NCc3c(Cl)ccc(Cl)c3F)n2)cn1 [Example I-78] | 0.1 to 1 | ≤ 0.01
N#CC1CCCN1C(=O)Cn1cc(Nc2ncc(Cl)c(NCc3ccccc3)n2)cn1 (stereo not shown) [Example I-237] | 0.1 to 1 | 0.01 to 0.1
NS(=O)(=O)c1ccc(CNc2nc(Nc3cnn(CCO)c3)ncc2F)cc1 [Example I-9] | > 10 | 0.01 to 0.1
COc1ccc(F)c(CNc2nc(Nc3cnn(CC(=O)N4CCOCC4)c3)ncc2F)c1F [Example I-24] | 1 to 10 | ≤ 0.01
Cn1cc(Nc2ncc(Cl)c(NCc3c(F)cc(F)cc3F)n2)cn1 [Example I-385] | 1 to 10 | 0.01 to 0.1
OCCn1cc(Nc2ncc(Cl)c(NCc3cccc(F)c3)n2)cn1 [Example I-171] | 0.1 to 1 | 0.01 to 0.1
CS(=O)(=O)c1ccccc1CNc1nc(Nc2cnn(CC3CC3)c2)ncc1Cl [Example I-476] | 1 to 10 | 1 to 10
CC(C)NC(=O)Cn1cc(Nc2nccc(NCc3c(F)cc(C#N)cc3F)n2)cn1 [Example I-1, 2-(4-((4-((4-cyano-2,6-difluorobenzyl)amino)pyrimidin-2-yl)amino)-1H-pyrazol-1-yl)-N-isopropylacetamide] | 1 to 10 | 0.01 to 0.1
Fc1cccc(CNc2nc(Nc3cn[nH]c3)ncc2Cl)c1C(F)(F)F [Example I-136] | 0.1 to 1 | 0.01 to 0.1
CC(C)NC(=O)Cn1cc(Nc2ncc(F)c(NCc3c(F)ccc(F)c3F)n2)cn1 [Example I-455] | 1 to 10 | ≤ 0.01

Structure (SMILES) | IC50 [1] [µM] | IC50 [2] [µM]
O=C(Cn1cc(Nc2ncc(Cl)c(NCc3cccnc3)n2)cn1)N1CCOCC1 [Example I-337] | 1 to 10 | 0.1 to 1
CNC(=O)Cn1cc(Nc2ncc(F)c(NCc3cccc(OC(F)F)c3)n2)cn1 [Example I-408] | > 10 | 0.01 to 0.1
Cn1cc(Nc2ncc(Cl)c(NCc3ncccc3F)n2)cn1 [Example I-260] | 1 to 10 | 0.1 to 1
COc1ccc(S(C)(=O)=O)cc1CNc1nc(Nc2cnn(CC(F)F)c2)ncc1F [Example I-480] | 1 to 10 | 0.1 to 1
Cc1cnc(Nc2cnn(C)c2)nc1NCc1c(F)cc(F)cc1F [Example I-301] | 1 to 10 | 0.01 to 0.1
Cc1cnc(Nc2cnn(CC(=O)N(C)C)c2)nc1NCc1c(F)ccc(F)c1F [Example I-422] | 0.1 to 1 | ≤ 0.01
Cn1cc(Nc2ncc(Cl)c(NCc3cc(C(F)(F)F)ccc3Cl)n2)cn1 [Example I-278] | 1 to 10 | 0.1 to 1
Cn1cc(Nc2nccc(NCc3c(F)cccc3Cl)n2)cn1 [Example I-55] | 1 to 10 | 0.01 to 0.1
CNC(=O)Cn1cc(Nc2ncc(Cl)c(NCc3ccccc3S(C)(=O)=O)n2)cn1 [Example I-451] | 1 to 10 | 1 to 10
COc1ccc(F)c(CNc2nc(Nc3cnn(CC(N)=O)c3)ncc2Cl)c1F [Example I-375] | 0.1 to 1 | 0.01 to 0.1
CC(C)(O)Cn1cc(Nc2ncc(Cl)c(NCc3cc(F)ccc3F)n2)cn1 [Example I-292] | 0.1 to 1 | 0.1 to 1
Cc1cnc(Nc2cnn(CCO)c2)nc1NCc1ccccc1 [Example I-169] | 1 to 10 | 0.1 to 1
O=C(Cn1cc(Nc2ncc(F)c(NCc3c(F)cc(F)cc3F)n2)cn1)NCC(F)(F)F [Example I-252] | > 10 | 0.01 to 0.1
CS(=O)(=O)c1ccccc1CNc1nc(Nc2cnn(CC(F)F)c2)ncc1F [Example I-477] | 1 to 10 | 1 to 10
C[C@H](CO)NC(=O)Cn1cc(Nc2nccc(NCc3c(F)cc(F)cc3F)n2)cn1 [Example I-456] | 1 to 10 | 0.01 to 0.1
CNC(=O)Cn1cc(Nc2ncc(C)c(NCc3c(F)ccc(F)c3F)n2)cn1 [Example I-421] | 0.1 to 1 | ≤ 0.01
N#Cc1c(F)cccc1CNc1nc(Nc2cnn(CCO)c2)ncc1Cl [Example I-287] | 0.1 to 1 | 0.1 to 1
FCCn1cc(Nc2ncc(Cl)c(NCc3ccccc3)n2)cn1 [Example I-461] | 1 to 10 | 1 to 10
